According to patent publication US20100272711A1, “COMPOSITIONS AND METHODS FOR THE TREATMENT AND PREVENTION OF CARDIOVASCULAR DISEASES” (THOMAS JEFFERSON UNIVERSITY, priority 2007, published 2010):

Assays:
[1] = tested on: wild-type and TNF 1.6 mice; assay: Left ventricular hemodynamics: chronotropic and functional responsiveness to adenosine analogue or AR agonists; type: in vivo, mouse
Description: FIGS. 16A-16B show the cardiac response of wild type (WT) and TNF 1.6 transgenic mice to an adenosine analogue or AR agonists. Under anesthetization, a 1.4 F micromanometer catheter (Millar Instruments) was inserted into the left ventricle through the right carotid artery. Chronotropic and functional responsiveness to adenosine analogue or AR agonists were recorded. […] Values are mean±SEM (n=5). *P<0.05 vs. age-matched WT. The graph measured the slope (in vivo chronotropic responsiveness) from baseline to 10 minutes after drug administration in wild-type and TNF 1.6 mice. Values were mean±SEM (n=5) and compared using ANOVA General Linear Model with repeated measures. *P<0.05 vs. age-matched WT in slope change. The graph in FIG. 16B measured the slope (arterial pressure or cardiac contractility) from baseline to 10 minutes after drug administration in wild-type and TNF1.6 mice. Values were mean±SEM (n=5) and compared using ANOVA General Linear Model with repeated measures. *P<0.05 vs. age-matched WT in slope change. Left Ventricular Hemodynamics Measurement. After anesthetization with 2.5% Avertin (10 μl/g body weight, IP, Aldrich Chemical Co), mice were placed in the supine position. A 1.4 F micromanometer catheter (Millar Instruments) was inserted into the left ventricle through the right carotid artery.^64,65 Left ventricular pressure and heart rate were then recorded at baseline and 10 minutes after injection of CPA (0.1 mg/kg body weight, IP, Sigma-Aldrich Co). A1 receptor-specific functional response. To determine whether the changes in A1-AR levels had functional significance in TNF 1.6 mice, the inventors determined the chronotropic response to the selective A1-AR agonist, 2-chloro-N^6-cyclopentanyladenosine (CPA).

[2] = tested on: animal models of ischemia/reperfusion injury; details: with a sodium-hydrogen exchanger inhibitor at reperfusion; or just before reperfusion in animal models; cited from earlier work
[3] = tested on: WT mice; assay: Effect of DOX diet on heart size and function of wild type mice; type: in vivo, mouse; details: 300 mg/kg diet; 12-week-old mice; FIGS. 9 and 10
Description: 7-10 12-weeks old mice from each group were measured. No significance was detected at p-value setting of P<0.05.
Echocardiography were performed on 7-10 12-weeks-old male mice. No significance was detected at p-value setting of P<0.05.
Echocardiography and Electrocardiogram (ECG). Echocardiographic studies on A1-AR transgenic mice were performed using an ultrasonographic system (ACUSON Sequoia C256) as described.^34,35 […] Non-transgenic littermates served as controls and unless otherwise noted, all mice were male. Mice were anesthetized with 2.5% Avertin (10 μl/g body weight, IP, Aldrich Chemical Co) and placed in the supine position. A 14-MHz transducer was applied to the left hemithorax. Two-dimensional targeted M-mode imaging was obtained from the short-axis view at the level of the greatest left ventricular dimension at baseline. […] End diastole was determined at the maximal left ventricular diastolic dimension, and end systole was taken at the peak of posterior-wall motion. […] ECG was recorded for 2 minutes and analyzed using Char 5 software (Adinstruments). […]

[4] = tested on: cardiac A1-AR expression (tTA transactivation); assay: Doxycycline-regulated A1-AR transgene expression (tet-off system) in A1-TG mice; type: in vivo, mouse
Excerpt: Transgenic mouse generation. The human A1-AR cDNA was cloned into a cardiac-specific and inducible controlled vector (TREMHC)^64 composed of a modified mouse α-myosin heavy chain minimal promoter fused with nucleotide binding sites for tetracyline transactivating factor (tTA).^33 A1-AR transgenic mice, engineered on a FVB background (PolyGene, Switzerland), were crossed with mice that expressed tTA in the heart (MHC-tTA) (FIG. 1A). In this “tet-off” inducible system, the stable tetracycline analog, doxycycline (DOX), inhibits tTA transactivation and was administered to mice at 300 mg/kg of mouse diet (Bio-Serv, NJ). Survival studies were performed using both male and female mice and found no statistical significant differences. Therefore, only male mice were used for subsequent studies. All protocols were approved by the Institutional Animal Care and Use Committee of Thomas Jefferson University.
Doxycyline-regulated A1-AR expression. The stable tetracycline analog, doxycycline (DOX), inhibits tTA transactivation. The inventors determined a minimal dose of DOX (300 mg/kg of mouse diets) that attenuated A1-AR expression, which, in turn prevented cardiomyopathy. […] To generate inducible A1-AR transgenic mice (A1-TGInd), DOX was removed when mice reached three-weeks of age. […] At six weeks of age, A1-AR protein expression in A1-TGCcon and A1-TGInd was identical (FIGS. 2B and C). […]

With `OC[C@H]1O[C@@H](n2cnc3c(NC4CCCC4)nc(Cl)nc32)[C@H](O)[C@@H]1O` [CPA, 2-chloro-N^6-cyclopentanyladenosine] the “arterial pressure and cardiac contractility after injection” value ([1]; baseline to 10 minutes after CPA injection, FIG. 16B) was “only slightly increased arterial pressure and cardiac contractility”, the “chronotropic response in TNF 1.6 mice compared with age- and gender-matched wild-type controls” value ([1]; baseline to 10 minutes after drug administration, n=5) was “far more robust decrease in heart rate” and the “heart rate (chronotropic response)” value ([1]; wild-type mice, baseline to 10 minutes after injection, CPA 0.1 mg/kg IP) was “effectively decreased heart rate”.

For `CCNC(=O)[C@H]1CC(n2cnc3c(N[C@H](CC)Cc4sccc4Cl)ccnc32)[C@H](O)[C@@H]1O` (relative stereo) [AMP 579, [1S-[1α,2β,3β,4α(S*)]]-4-[7-[[3-chloro-2-thienyl)methyl]propyl]amino]-3H-imidazo[4,5-b]pyridin-3-yl]-N-ethyl-2,3-dihydroxycyclopentanecarboxamide], the cardioprotection [2] is listed as “cardioprotective”.

In the case of `C[C@H]1c2cccc(O)c2C(=O)C2=C(O)[C@]3(O)C(=O)C(C(N)=O)=C(O)[C@@H](N(C)C)[C@@H]3[C@@H](O)[C@@H]21` [DOX, doxycycline], the “WT mouse heart size or function” value [3] is reported as “did not affect WT mouse heart size or function”, the “minimal dose that attenuated A1-AR expression” value ([4]; in turn prevented cardiomyopathy) is reported as 300 mg/kg of mouse diets and the transgene suppressed ([4]; sub-optimum DOX dose) is reported as 80%.
